Source: US5622934A, “Peptides with an insulin-like action” (priority 1991, dated 1997)

What was measured:
[1] = tested on: rat diaphragm fragments; assay: Glycogenesis: glycogen synthesis in rat diaphragm fragments; type: cell-based; details: for Concentration [μM] at which 25% of the max. HI action is reached (glycogenesis): 25% of the maximum human insulin action; for Glycogenesis % of the max. HI action: 15 min at 37° C., 50 μM D-[U-14C]glucose, human insulin (HI) = 100%
Procedure: (§1) The biological activity of the peptides of formula I according to the invention is determined with the aid of preparatively isolated rat fat cells and diaphragm fragments.
Preparation of rat diaphragm fragments: Small tissue fragments (5 mm diameter) are punched out of hemidiaphragms (Wistar rat, 60-70 g, no feed restriction) which have been washed several times.
This test determines the insulin-stimulatable glycogen synthesis in muscle cells, comprising the glucose transport via the plasma membrane and the conversion of the glucose to glycogen, including the functional insulin signal transmission cascade.
Diaphragm fragments are incubated for 15 min at 37° C. in Krebs-Ringer-Henseleit buffer (KRH buffer) with 50 μM D-[U-^14 C]glucose in the presence or absence of insulin or the peptides according to the invention. After the medium has been filtered with suction, the tissue fragments are intensively washed, frozen at -70° C. and then homogenized at 2° C. in a Polytron pulverizer. The homogenate is centrifuged (2000 g) and the supernatant is pipetted onto filter paper. To determine the glycogen formed, the filters are transferred into trichloroacetic acid (TCA) (5%), washed with ethanol and acetone and dried and their radioactivity is determined via scintillation measurement ([^14 C]glycogen [dpm×10^-3 ]).
(§2) The action of human insulin (HI) is given a value of 100%. The concentration data of the peptides according to the invention used are based on the concentration at which 25% or 20% of the maximum HI action is reached.

[2] = tested on: plasma membrane vesicles from rat fat cells; assay: Glucose transport activity in isolated plasma membrane vesicles; type: biochemical; details: for Concentration [μM] at which 20% of the max. HI action is reached (glucose transport): 20% of the maximum human insulin action; for Glucose transport % of the max. HI action: 30 min at 25° C., then 10 sec with 50 μM D-[3-3H]glucose, human insulin (HI) = 100%
Procedure: as §1
(§3) Rat fat cells were prepared as follows: Fatty tissue of the epididymis (Wistar rat, 160-180 g, no feed restriction) is digested with collagenase and the resulting isolated fat cells are washed several times by flotation.
C) Glucose transport activity
Isolated plasma membrane vesicles are obtained from rat fat cells by washing the fat cells twice in homogenization buffer (20 mM trihydroxyaminomethane (Tris)/HCl, pH 7.4, 1 mM, 4° C., EDTA, 0.25M sucrose) and then homogenizing them in 20 ml of the same buffer (glass homogenizer with Teflon pestle).
The homogenate is centrifuged (16,000×g, 15 min) and the sediment is suspended in the same buffer and centrifuged again. The sediment is suspended in 5 ml of homogenization buffer and layered onto a sucrose cushion (1.12M sucrose, 20 mM Tris/HCl, pH 7.4, 1 mM EDTA); after centrifugation (100,000×g, 70 min), the interphase containing the plasma membrane vesicles is removed with a syringe, diluted with 45 ml of buffer and centrifuged again (48,000×g, 45 min). The sediment is suspended in 10 ml of buffer, centrifuged again and resuspended in 3 ml of buffer.
Isolated plasma membrane vesicles are incubated for 30 min at 25° C. in the presence or absence of insulin or the peptides according to the invention. The vesicles are then incubated for 10 sec at 25° C. with 50 μM D-[3-^3 H]glucose and […] of the same specific radioactivity. The mixtures are rapidly filtered with suction on nitrocellulose filters. The filters are washed copiously and dried. Their radioactivity is determined by liquid scintillation measurement. The specific transport (D-[^3 H]glucose/L-[^4 C]glucose [dpm×10^-3 ]) is calculated as the difference between the [^3 H] and [^14 C] radioactivity.
as §2

[3] = tested on: rat fat cells; assay: Lipogenesis: conversion of glucose to toluene-soluble products in isolated rat fat cells; type: cell-based; details: for Concentration [μM] at which 25% of the max. HI action is reached (lipogenesis): 25% of the maximum human insulin action; for Lipogenesis % of the max. HI action: 90 min at 37° C., D-[3-3H]glucose, human insulin (HI) = 100%
Procedure: as §1, §3
This test determines the insulin-stimulatable conversion of glucose to toluene-soluble products (triglycerides, phospholipids, fatty acids), requiring the glucose transport and the triglyceride (glycerol-3-P synthesis, esterification)/phospholipid/fatty acid synthesis, including the insulin signal transmission cascade.
Rat fat cells in KRH buffer are incubated for 90 min at 37° C. with D-[3-^3 H]glucose (0.2 mM or 1 mM final concentration) in the presence or absence of insulin or peptides according to the invention. By the addition of a toluene-soluble scintillation cocktail, the cells are digested and the lipids separated from water-soluble products and the incubation medium. After phase separation, the radioactivity incorporated into lipids is determined by scintillation measurement directly without removal of the aqueous phase ([^3 H]lipid [dpm×10^-3 ]).
as §2

Substance | Concentration [μM] at which 25% of the max. HI action is reached (glycogenesis) [1] [µM] | Glycogenesis % of the max. HI action [1] [%] | Concentration [μM] at which 20% of the max. HI action is reached (glucose transport) [2] [µM] | Glucose transport % of the max. HI action [2] [%] | Concentration [μM] at which 25% of the max. HI action is reached (lipogenesis) [3] [µM] | Lipogenesis % of the max. HI action [3] [%]
Acetyl--L--Tyr--L--Cys--L--Asn--NH--CH2 --CH2 OH [Example 11] | 240 | 45 | 260 | 40 | 200 | 36
H--(3--(thien--2--yl)--L--Ala)--L--Cys--L--Asn--OH [Example 8] | 375 | 31 | 410 | 25 | 450 | 26
H--D--Tyr--L--Cys--L--Asn--NH--CH2 --CH2 OH [Example 4] |  | 23 | 260 | 38 | 410 | 31
H--L--Asn--L--Cys--L--Tyr--NH--CH2 --CH2 OH [Example 3] | 285 | 42 | 225 | 38 | 375 | 31
H--L--Cys--L--Asn--NH--CH2 --CH2 OH [Example 5] |  | 16 | 600 | 25 |  | 21
H--L--Cys--L--Tyr--NH--CH2 --CH2 OH [Example 6] | 480 | 32 | 750 | 24 |  | 17
H--L--Tyr--L--Cys--L--Asn--NH--(CH2)2 --O--PO(OH)--O(CH2)2 --CN [Example 13] | 100 | 31 | 140 | 36 | 120 | 33
H--L--Tyr--L--Cys--L--Asn--NH--(CH2)2 --O--PO(OH)--O--6Manα1--2Manα1--O--CH3 [Example 15] | 139 | 29 | 122 | 32 | 142 | 35
H--L--Tyr--L--Cys--L--Asn--NH--CH2 --CH2 --NH2 [Example 10] | 450 | 25 | 300 | 42 | 330 | 30
H--L--Tyr--L--Cys--L--Asn--NH--CH2 --CH2 --NH--gluconic acid [Example 9] |  | 11 |  | 15 |  | 12
H--L--Tyr--L--Cys--L--Asn--OH [Example 12] |  | 15 | 880 | 20 | 750 | 26
H--L--Tyr--L--Cys--NH--(CH2)4 --NH2 [Example 7] |  | 2 |  | 10 |  | 18
H--L--Tyr--L--Cys--NH--CH2 --CH2 --NH2 [Example 2] | 650 | 28 | 350 | 40 | 500 | 32
L--Tyr--L--Cys--L--Asn--NH--(CH2)2 --O--PO(OH)--O--6Manα1--2--Manα1--6Manα1--O--CH3 [Example 16] | 135 | 25 | 152 | 29 | 125 | 24
